Paper PMC10584170, “Machine learning-based phenotypic imaging to characterise the targetable biology of Plasmodium falciparum male gametocytes for the development of transmission-blocking antimalarials” (PLOS Pathogens, 2023)

How the values were obtained:
[1] = tested on: P. falciparum male gametocytes; experiment: P. falciparum Dual Gamete Formation Assay (PfDGFA), male readout (exflagellation); type: cell-based, Plasmodium falciparum NF54; details: for Average inhibition male (%): average of replicates; for % inhibition male (individual replicates) R1: replicate R1; for % inhibition male (individual replicates) R3: replicate R3; for % inhibition male (individual replicates) R4: replicate R4; for Activity: hit = >50% inhibition in male or female readout in at least 3 replicates, 0 = no class assigned
Experimental: P. falciparum NF54 (originally isolated from an imported malaria case in the Netherlands in the 1980s; BEI Resources, cat. No. MRA-1000) strain asexual parasites were maintained between 0.3–5% parasitaemia by regular passage in complete culture medium (RPMI supplemented with 25 mM HEPES, 50 μg ml^−1 hypoxanthine, 4.8 g l^−1 NaHCO3, 2mM L-glutamine, 5% pooled type AB serum, 0.5% Albumax II (Gibco)) at 4% haematocrit in washed whole blood (National Blood and Transfusion Service or Centro de Transfusiones de la Comunidad de Madrid CTCM) under a 1% O2/3% CO2/96% N2 environment. Gametocytes were induced by seeding culture flasks at 2% parasitaemia/4% haematocrit and subjecting them to daily medium changes for 14 days whilst maintaining a temperature of 37°C at all times. On Day 14, the maturity of gametocytes was assessed by quantifying male gametogenesis (exflagellation). A 20 μl sample of gametocyte culture was mixed with equal volume of ookinete medium (complete culture medium supplemented with 0.1 μM xanthurenic acid) at room temperature and transferred to a haemocytometer. After 20 min at room temperature, exflagellation was accurately quantified as described in Delves et al. 2016 [17].
The Pf DGFA was performed as described in Delves et al. 2016 [17]. […] Plates were then incubated for 24 h at 37°C in a humidified box under a 1% O2/3% CO2/96% N2 gas mix. Gametogenesis was triggered by addition of 10 μl per well of ookinete medium + 0.27 μg ml^-1 Cy3-labelled anti-Pfs25 antibody. Plates were incubated on a metal block at 4°C for 4 min to ensure even cooling, then 28°C for a further 4 min. Exflagellation was recorded by capturing 10 frames over 1 s under brightfield illumination using a x4 objective with a 1.5x zoom (effectively x6) attached to an automated Nikon Ti fluorescence microscope. After recording exflagellation, plates were incubated for a further 24 h in the dark at 28°C to ensure maximal expression of Pfs25 by female gametes. The plates were then returned to the microscope and female gametes imaged at x6 using fluorescence microscopy.
Exflagellation centres and female gametes were quantified using custom image analysis pipelines developed within ICY Bioimage Analysis (https://icy.bioimageanalysis.org/).

[2] = tested on: P. falciparum female gametocytes; experiment: P. falciparum Dual Gamete Formation Assay (PfDGFA), female readout (Pfs25-positive female gametes); type: cell-based, Plasmodium falciparum NF54; details: for Average inhibition female (%): average of replicates; for % inhibition female (individual replicates) R1: replicate R1; for % inhibition female (individual replicates) R3: replicate R3; for % inhibition female (individual replicates) R4: replicate R4
Method in brief: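 NF54 mature gametocytes (d14), cpd 24 h 37°C hypoxic gas; trigger: xanthurenic acid ookinete medium + Cy3 anti-Pfs25, 4°C 4 min → 28°C 4 min. Male: exflagellation centres, brightfield x6. Female: Pfs25+ gametes, fluorescence, +24 h 28°C dark.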

[3] = PfDGFA at 2µM, 24h preincubation with gametocytes
[4] = number of replicates with >50% inhibition in the male readout, 2µM
[5] = number of replicates with >50% inhibition in the female readout, 2µM
[6] = 2µM, 24h preincubation with gametocytes prior to induction of gametogenesis
[7] = 2µM, 24h preincubation, hits selected on >50% inhibition in the male readout across replicates
[8] = PfDGFA at 2µM, 24h preincubation
[9] = 2µM, 24h preincubation, hits selected on >50% inhibition in the female readout across replicates
[10] = 2µM, 24h preincubation, number of replicates with >50% inhibition in the male readout
[11] = 2µM, 24h preincubation, number of replicates with >50% inhibition in the female readout
[12] = PfDGFA at 2µM, 24h preincubation with gametocytes prior to induction of gametogenesis
[13] = 2µM, 24h preincubation with gametocytes

SMILES | Average inhibition male (%) [1, 6] | % inhibition male (individual replicates) R1 [1, 6] | % inhibition male (individual replicates) R3 [1, 6] | % inhibition male (individual replicates) R4 [1, 6] | Average inhibition female (%) [2, 6] | % inhibition female (individual replicates) R1 [2, 6] | % inhibition female (individual replicates) R3 [2, 6] | % inhibition female (individual replicates) R4 [2, 6] | HitlevelM [1, 10] | HitlevelF [2, 11] | also measured
CN1CCCC1CCNCc1cccc(-c2cnc(N(C)C3CCCCC3)nc2)c1 (stereo not shown) [TCMDC-133141] |  |  |  |  |  |  |  |  |  |  | Average inhibition male (%) [1, 3]: 74.0%; % inhibition male (individual replicates) R1 [1, 3]: 71.5%; % inhibition male (individual replicates) R3 [1, 3]: 68.9%; % inhibition male (individual replicates) R4 [1, 3]: 81.6%; HitlevelM [1, 4]: 4; Average inhibition female (%) [2, 3]: 34.0%; % inhibition female (individual replicates) R1 [2, 3]: 30.5%; % inhibition female (individual replicates) R3 [2, 3]: 11.1%; % inhibition female (individual replicates) R4 [2, 3]: 42.8%; HitlevelF [2, 5]: 1
Cc1[nH]cc(Br)c(=O)c1-c1ccc(Oc2ccc(OC(F)(F)F)cc2)cc1 [TCMDC-136197] | -14.5% | -14.1% | -25.2% | -5.8% | 8.0% | 22.6% | 0.02% | -5.7% |  |  | HitlevelM [1, 7]: 0; Activity [1, 8]: 0; HitlevelF [2, 9]: 0
CC1(C)N=C(N)N=C(N)N1c1ccc(Br)cc1.Cl [TCMDC-123959] | -8.5% | 15.3% | 4.6% | -63.1% | 18.2% | 15.6% | 12.6% | 26.1% | 0 | 0 | 
Cl.NC1CCN(CCc2ccc(NS(=O)(=O)c3ccc(-c4ccccc4)cc3)cc2)CC1 [TCMDC-134085] | 44.1% | 43.6% | 36.7% | 44.2% | 47.2% | 28.9% | 50.6% | 70.5% | 1 | 2 | 
Cc1cc(F)ccc1-c1nc(NCCCNCCc2ccccc2)nc2c1ccc(=O)n2-c1c(F)cccc1F.O=C(O)C(F)(F)F [TCMDC-141804] | 11.7% | 17.7% | -28.8% | 37.6% | 33.0% | 27.9% | 6.6% | 62.0% | 0 | 1 | 
CC1CCCC(C)N1C[C@@H](O)CNS(=O)(=O)c1cccc(C(F)(F)F)c1.Cl (stereo partly shown) [TCMDC-134258] | 5.6% | -0.6% | 1.0% | 12.9% | 4.2% | 10.4% | -24.4% | 21.9% |  |  | HitlevelM [1, 7]: 0; Activity [1, 8]: 0; HitlevelF [2, 9]: 0
CN1CCc2cc(NS(=O)(=O)c3ccc(-c4ccc(Cl)cc4)cc3)c(OCCCN3CCCCC3)cc2CC1.Cl [TCMDC-141754] |  |  |  |  |  |  |  |  |  |  | Average inhibition male (%) [1, 3]: 76.4%; % inhibition male (individual replicates) R1 [1, 3]: 81.6%; % inhibition male (individual replicates) R3 [1, 3]: 46.2%; % inhibition male (individual replicates) R4 [1, 3]: 86.2%; HitlevelM [1, 4]: 3; Average inhibition female (%) [2, 3]: 21.5%; % inhibition female (individual replicates) R1 [2, 3]: 25.0%; % inhibition female (individual replicates) R3 [2, 3]: 13.0%; % inhibition female (individual replicates) R4 [2, 3]: 19.2%; HitlevelF [2, 5]: 0
CC(C)(c1ccccc1)c1ccc(O)c(CN2CCOCC2)c1 [TCMDC-124276] |  |  |  |  |  |  |  |  |  |  | % inhibition male (individual replicates) R1 [1, 12]: 1.1%; % inhibition male (individual replicates) R4 [1, 12]: -1.8%; Average inhibition male (%) [1, 8]: 10.2%; % inhibition female (individual replicates) R1 [2, 12]: 0.5%; % inhibition female (individual replicates) R3 [2, 12]: 8.1%; % inhibition female (individual replicates) R4 [2, 12]: -2.3%; Average inhibition female (%) [2, 8]: -2.0%
O=[N+]([O-])c1ccc(C=NO)nc1 [TCMDC-131967] |  |  |  |  |  |  |  |  |  |  | Average inhibition male (%) [1, 13]: 97.7%; % inhibition male (individual replicates) R1 [1, 13]: 97.9%; % inhibition male (individual replicates) R3 [1, 13]: 95.1%; % inhibition male (individual replicates) R4 [1, 13]: 101.6%; Average inhibition female (%) [2, 13]: 41.1%; % inhibition female (individual replicates) R1 [2, 13]: 34.5%; % inhibition female (individual replicates) R3 [2, 13]: 28.1%; % inhibition female (individual replicates) R4 [2, 13]: 43.8%
Cc1c(Cl)cccc1S(=O)(=O)Nc1ccc(CCN2CCC(N)CC2)cc1.Cl [TCMDC-134083] | 39.0% | 41.2% | 34.9% | 36.9% | 33.7% | 28.3% | 44.7% | 16.4% | 0 | 0 | 
CC(Cc1ccc(COc2ccc(CC(CO)NCCc3cccc(Cl)c3)cc2)cc1)NCCc1cccc(Cl)c1.Cl (stereo not shown) [TCMDC-139844] |  |  |  |  |  |  |  |  |  |  | % inhibition male (individual replicates) R1 [1, 12]: -13.5%; % inhibition male (individual replicates) R3 [1, 12]: 14.9%; % inhibition male (individual replicates) R4 [1, 12]: 2.8%; Average inhibition male (%) [1, 8]: 1.7%; % inhibition female (individual replicates) R1 [2, 12]: -3.0%; % inhibition female (individual replicates) R3 [2, 12]: -11.7%; % inhibition female (individual replicates) R4 [2, 12]: 12.8%; Average inhibition female (%) [2, 8]: 1.7%
Cc1[nH]c(C)c(-c2ccc(Oc3ccc(OC(F)(F)F)cc3)cc2)c(=O)c1Br [TCMDC-138826] | -11.2% | -5.2% |  | -18.5% | 14.3% | 12.8% | 15.5% | 15.2% |  |  | HitlevelM [1, 7]: 0; Activity [1, 8]: 0; HitlevelF [2, 9]: 0
Cc1nc2nc(N)nc(N)c2c(C)c1Cc1cccc(C#N)c1.Cl [TCMDC-137646] |  |  |  |  |  |  |  |  |  |  | % inhibition male (individual replicates) R1 [1, 12]: 10.9%; % inhibition male (individual replicates) R3 [1, 12]: 34.4%; % inhibition male (individual replicates) R4 [1, 12]: 21.2%; Average inhibition male (%) [1, 8]: 19.8%; % inhibition female (individual replicates) R1 [2, 12]: -3.5%; % inhibition female (individual replicates) R3 [2, 12]: -14.6%; % inhibition female (individual replicates) R4 [2, 12]: 5.5%; Average inhibition female (%) [2, 8]: -8.2%
Cl.c1ccc2c(Nc3ccc(OCCOCCOc4ccc(Nc5c6ccccc6nc6ccccc56)cc4)cc3)c3ccccc3nc2c1 [TCMDC-137355] | 37.2% | 36.9% | -1.4% | 40.2% | 29.1% | 27.7% | 5.6% | 8.9% | 1 | 1 | 
